The term pIC50 denotes the negative decadic logarithm of the IC50, by convention in mol/L. What is called CC50 is the concentration that lowers cell viability or growth by half.

Our source for the IC50, selectivity ratio and CC50 values is ChEMBL document CHEMBL5370527, “Hit-to-lead optimization of a pyrazinylpiperazine series against Leishmania infantum and Leishmania braziliensis” (Eur J Med Chem, 2023).

Series [1] has as its system Leishmania braziliensis. Briefly: Antileishmanial activity against […] stage of Leishmania braziliensis MHOM/BR/75/M2904 infected in human THP-1 cells assessed as parasite growth inhibition incubated for 72 hrs by microplate reader analysis. The format is functional, organism-based. Particulars: MHOM/BR/75/M2904, THP-1, 72 h.
The nature of series [2]: Selectivity index, ratio of CC50 for cytotoxicity against human THP-1 cells assessed as reduction in cell viability to IC50 for antileishmanial activity against […] stage of Leishmania infantum MHOM/BR/1974/PP75 infected in human THP-1 cells assessed as parasite growth inhibition. Particulars: read-out: Ratio CC50/IC50. It counts as toxicity, cell-based.
A short description of series [3]: Cytotoxicity against human THP-1 cells assessed as reduction in cell viability incubated for 72 hrs by alamarblue staining based analysis. It counts as toxicity. In general terms: The colour change of resazurin is a common sign of viable cells or microbes.
Series [4] in a line: Selectivity index, ratio of CC50 for cytotoxicity against human THP-1 cells assessed as reduction in cell viability to IC50 for antileishmanial activity against […] stage of Leishmania braziliensis MHOM/BR/75/M2904 infected in human THP-1 cells assessed as parasite growth inhibition. The format is toxicity, cell-based. As to conditions: read-out: Ratio CC50/IC50.
Series [5] has as its system Leishmania infantum. The series is described as follows: Antileishmanial activity against […] stage of Leishmania infantum MHOM/BR/1974/PP75 infected in human THP-1 cells assessed as parasite growth inhibition incubated for 72 hrs by microplate reader analysis. The format is functional, organism-based. Particulars: MHOM/BR/1974/PP75, THP-1, 72 h.
The test system of series [6] is Trypanosoma cruzi. The series is described as follows: Antitrypanosomal activity against Trypanosoma cruzi Tulahuen infected in mouse L929 cells assessed as parasite growth inhibition incubated for 96 hrs. The format is functional, organism-based. Particulars: L929, 96 h.

pIC50: −log10 of the molar value.

Take `COc1cccc(C(=O)N2CCN(c3cnccn3)CC2)c1OC`: the results for the pIC50 in series [1] and in series [5] were 4.09 and 3.95, respectively. The selectivity ratio amounted to 18 in series [2] and 24 in series [4]. Besides, the CC50 at 72 h in series [3] worked out at 2000 µM.

With `O=C(c1ccc(C(F)(F)F)nc1)N1CCN(c2cnccn2)CC1`, the pIC50 is 4.49 in series [1], less than 3.76 in series [6] and 4.45 in series [5]. Moreover, the selectivity ratio worked out at 298 in series [2] and 327 in series [4]. The CC50 at 72 h in series [3] was 10500 µM.

`COc1ccc(S(=O)(=O)N2CCN(c3cnccn3)CC2)cc1`: the negative logarithm of the IC50 (pIC50) in series [1] was 4.03; in series [5] it was 3.91. Also, the selectivity ratio in series [2] is greater than 24; in series [4] it was greater than 32. In series [3], the CC50 at 72 h is greater than 2990 µM.

Turning to `O=C(c1ccccc1O)N1CCN(c2cnccn2)CC1`, the pIC50 in series [1] was 4.07; in series [6], less than 3.76; in series [5] it was 4.23. Besides, the selectivity ratio was determined as 45 in series [2] and 31 in series [4]. The CC50 at 72 h in series [3] was found to be 2620 µM.

`O=C(c1ccc(O)cc1O)N1CCN(c2cnccn2)CC1`: the pIC50 is 4.72 in series [1] and 4.66 in series [5]. Further, the results for the selectivity ratio in series [2] and in series [4] were 20 and 23, respectively. In addition, the CC50 at 72 h in series [3] was 443 µM.

As for `O=C(c1ccc(O)c(O)c1)N1CCN(c2cnccn2)CC1`, the pIC50 in series [1] was 5.03; in series [5] it was 5.46. Moreover, the selectivity ratio was 407 in series [2] and 151 in series [4]. Also, the CC50 at 72 h in series [3] came out at 1420 µM.

Consider `O=S(=O)(c1ccc(O)cc1)N1CCN(c2cnccn2)CC1`, for which the results for the pIC50 in series [1] and in series [5] were 3.95 and 3.80, respectively. In addition, the figures for the selectivity ratio in series [2] and in series [4] were 16 and 22, respectively. In addition, the CC50 at 72 h in series [3] was found to be 2510 µM.

Take `O=C(N1CCN(c2cnccn2)CC1)n1ccnc1`: the pIC50 in series [1] is 5.04; in series [5], 5.14. For the same compound, the values for the selectivity ratio in series [2] and in series [4] were 438 and 347, respectively. For the same compound, in series [3], the CC50 at 72 h came to 3190 µM.

As to `Oc1ccc(N2CCN(c3cnccn3)CC2)cc1`, the pIC50 in series [1] was 4.57; in series [5], 4.36. Besides, the results for the selectivity ratio in series [2] and in series [4] were greater than 89 and greater than 144, respectively. The CC50 at 72 h in series [3] is greater than 3900 µM.

As to `O=C(c1ccc(Cl)nc1)N1CCN(c2cnccn2)CC1`, the figures for the pIC50 in series [1] and in series [5] were 5.00 and 5.72, respectively. For the same compound, the selectivity ratio in series [2] was 184; in series [4], 35. Further, the CC50 at 72 h in series [3] was found to be 349 µM.

Consider `O=C(c1ccc(-n2cnnn2)cc1)N1CCN(c2cnccn2)CC1`, for which the pIC50 is 5.05 in series [1], less than 3.76 in series [6] and 5.24 in series [5]. The selectivity ratio turned out to be 449 in series [2] and 293 in series [4]. Also, the CC50 at 72 h in series [3] stood at 2610 µM.

With `O=C(c1ccc(C(F)(F)F)cc1)N1CCN(c2cnccn2)CC1`, the pIC50 is 4.25 in series [1], less than 3.76 in series [6] and 4.07 in series [5]. Further, the selectivity ratio in series [2] was determined as 5; in series [4], 8. The CC50 at 72 h in series [3] is 421 µM.

As for `COc1ccc(C(=O)N2CCN(c3cnccn3)CC2)cn1`, the pIC50 in series [1] is 4.76; in series [5] it was 5.21. Besides, the selectivity ratio turned out to be 231 in series [2] and 82 in series [4]. In addition, in series [3], the cytotoxic concentration (CC50) at 72 h is 1430 µM.

As for `O=C(c1ccc(O)cn1)N1CCN(c2cnccn2)CC1`, the results for the pIC50 in series [1] and in series [5] were 4.03 and 3.89, respectively. In addition, the selectivity ratio in series [2] was greater than 27; in series [4], greater than 37. Further, the CC50 at 72 h in series [3] is greater than 3500 µM.

For `O=C(c1ccc(O)cc1)N1CCN(c2cnccn2)CC1`, the pIC50 was 5.12 in series [1], less than 3.76 in series [6] and 5.51 in series [5]. The selectivity ratio in series [2] was 346; in series [4], 141. For the same compound, the CC50 at 72 h in series [3] was 1070 µM.

For `O=C(c1cc(Cl)ccc1O)N1CCN(c2cnccn2)CC1`, the pIC50 in series [1] was 5.35; in series [5], 4.97. For the same compound, the results for the selectivity ratio in series [2] and in series [4] were 149 and 357, respectively. Also, the CC50 at 72 h in series [3] came out at 1600 µM.

For the compound `C[C@@H]1[C@H](O)[C@@H](C)/C=C/C=C/C=C/C=C/C=C/C=C/C=C/[C@H](O[C@@H]2O[C@H](C)[C@@H](O)[C@H](N)[C@@H]2O)C[C@@H]2O[C@](O)(C[C@@H](O)C[C@@H](O)[C@H](O)CC[C@@H](O)C[C@@H](O)CC(=O)O[C@H]1C)C[C@H](O)[C@H]2C(=O)O` [AMPHOTERICIN B], the pIC50 in series [1] was 6.89; in series [5] it was 6.60. Besides, the selectivity ratio in series [2] turned out to be 1460; in series [4] it was 2800. In series [3], the CC50 at 72 h came out at 364 µM.

Take `O=C(c1cccc(C(F)(F)F)n1)N1CCN(c2cnccn2)CC1`: the pIC50 in series [1] is 2.45; in series [6] it was less than 3.76; in series [5], 2.13. For the same compound, the selectivity ratio was found to be 0.2 in series [2] and 0.5 in series [4]. In series [3], the 50% cytotoxic concentration (CC50) at 72 h was 1700 µM.

As for `O=C(c1ccccn1)N1CCN(c2cnccn2)CC1`, the pIC50 in series [1] was 4.46; in series [5] it was 4.19. Besides, the selectivity ratio worked out at 18 in series [2] and 32 in series [4]. Moreover, the CC50 at 72 h in series [3] was found to be 1130 µM.

Turning to `O=C(c1cccnc1)N1CCN(c2cnccn2)CC1`, the pIC50 is 3.88 in series [1] and 3.85 in series [5]. In addition, the selectivity ratio is greater than 26 in series [2] and greater than 28 in series [4]. The CC50 at 72 h in series [3] was greater than 3710 µM.

Take `O=C(c1ccc(N2CCCC2)nc1)N1CCN(c2cnccn2)CC1`: the values for the pIC50 in series [1] and in series [5] were 5.23 and 5.28, respectively. In addition, the values for the selectivity ratio in series [2] and in series [4] were 53 and 48, respectively. In series [3], the CC50 at 72 h is 280 µM.

As for `O=C(c1ccc(F)cc1O)N1CCN(c2cnccn2)CC1`, the pIC50 in series [1] is 4.59; in series [5], 4.85. Besides, the selectivity ratio came to 80 in series [2] and 44 in series [4]. For the same compound, the CC50 at 72 h in series [3] amounted to 1130 µM.

For the compound `O=C(c1ccc(NC2CCCC2)nc1)N1CCN(c2cnccn2)CC1`, the pIC50 was 3.47 in series [1] and 3.55 in series [5]. The selectivity ratio was found to be 3 in series [2] and 2 in series [4]. Further, the CC50 at 72 h in series [3] turned out to be 763 µM.

In the case of `COc1ccc(Cl)cc1C(=O)N1CCN(c2cnccn2)CC1`, the pIC50 is 5.11 in series [1], less than 3.76 in series [6] and 4.56 in series [5]. In addition, the CC50 at 72 h in series [3] worked out at 1010 µM. Besides, the selectivity ratio in series [4] amounted to 130.

On to `Nc1ccc(C(=O)N2CCN(c3cnccn3)CC2)cn1`, for which the pIC50 was 4.92 in series [1] and 5.29 in series [5]. Besides, the selectivity ratio in series [2] came out at 524; in series [4], 224. The CC50 at 72 h in series [3] worked out at 2670 µM.

In the case of `O=C(/C=C/c1ccc(O)c(O)c1)N1CCN(c2cnccn2)CC1`, the pIC50 in series [1] is 4.13; in series [5], 3.98. The selectivity ratio in series [2] is greater than 29; in series [4], greater than 41. In addition, the CC50 at 72 h in series [3] was greater than 3060 µM.

On to `O=C(c1cccc(O)c1O)N1CCN(c2cnccn2)CC1`, for which the pIC50 is 6.70 in series [1] and 5.55 in series [5]. For the same compound, the selectivity ratio in series [2] was greater than 1190; in series [4] it was greater than 16600. Further, in series [3], the CC50 at 72 h was greater than 3330 µM.

`O=C(c1ccc(O)nc1)N1CCN(c2cnccn2)CC1`: the pIC50 was 3.73 in series [1] and 3.75 in series [5]. Besides, the selectivity ratio in series [2] was 1460; in series [4] it was greater than 19. Moreover, the CC50 at 72 h in series [3] is greater than 3500 µM.

`N[C@@H](Cc1ccc(O)cc1)C(=O)N1CCN(c2cnccn2)CC1`: the figures for the pIC50 in series [1] and in series [5] were 4.16 and 5.48, respectively. Further, in series [3], the CC50 at 72 h worked out at 2410 µM. Further, the selectivity ratio in series [4] stood at 35.

Turning to `CC(C)(C)OC(=O)N[C@@H](Cc1ccc(O)cc1)C(=O)N1CCN(c2cnccn2)CC1`, the pIC50 in series [1] is 5.03; in series [5] it was 5.54. The selectivity ratio in series [2] amounted to 349; in series [4], 108. Moreover, the CC50 at 72 h in series [3] was 1010 µM.

For `COc1ccc(C(=O)N2CCN(c3cnccn3)CC2)c(OC)c1`, the results for the pIC50 in series [1] and in series [5] were 4.51 and 4.58, respectively. For the same compound, the selectivity ratio came out at 18 in series [2] and 16 in series [4]. For the same compound, the CC50 at 72 h in series [3] came out at 482 µM.

In the case of `COc1ccc(C(=O)N2CCN(c3cnccn3)CC2)cc1OC`, the pIC50 in series [1] was 4.47; in series [5] it was 4.26. Moreover, the selectivity ratio stood at 13 in series [2] and 21 in series [4]. In series [3], the CC50 at 72 h was 721 µM.

With `O=C(c1ccc2cc(O)ccc2c1)N1CCN(c2cnccn2)CC1`, the results for the negative logarithm of the IC50 (pIC50) in series [1] and in series [5] were 5.59 and 5.48, respectively. For the same compound, the selectivity ratio in series [2] was determined as 241; in series [4], 306. The CC50 at 72 h in series [3] is 796 µM.

In the case of `N#Cc1ccc(C(=O)N2CCN(c3cnccn3)CC2)cc1`, the pIC50 in series [1] was 4.64; in series [5], 4.80. Further, the results for the selectivity ratio in series [2] and in series [4] were 81 and 57, respectively. For the same compound, the CC50 at 72 h in series [3] was found to be 1290 µM.
